Experimental data as given in patent US4591582A, “Organophosphorus compounds useful as anticonvulsant agents” (priority 1984, dated 1986).
Like-named read-outs stand apart in the source and are kept apart here.

How the values were obtained:
[1] = tested on: seizures induced by subcutaneous pentylenetetrazol (Metrazol) (scMet); details: data taken from Kupferberg, 1980, cited from earlier work; for ED50, scMet: pentylenetetrazol 85 mg/kg s.c.
[2] = tested on: seizures induced by subcutaneous bicuculline (scBic); details: data taken from Kupferberg, 1980, cited from earlier work; for ED50, scBic: bicuculline 2.7 mg/kg s.c.
[3] = tested on: convulsions induced in mice by MES and scMet; details: reported, Kupferberg, 1980; cited from earlier work
[4] = tested on: seizures induced by maximal electroshock (MES); details: data taken from Kupferberg, 1980; cited from earlier work
[5] = tested on: seizures induced by subcutaneous picrotoxin (scPic); details: data taken from Kupferberg, 1980, cited from earlier work; for ED50, scPic: picrotoxin 3.2 mg/kg s.c.
[6] = tested on: seizures induced by subcutaneous pentylenetetrazol (Metrazol) (scMet); test: inhibition of seizures induced by subcutaneous pentylenetetrazol (Metrazol) (scMet), 85 mg/kg; assay type: in vivo, male Carworth Farms No. 1 mice; details: for P.I. (protective index, TD50/ED50), scMet / ED50, scMet: i.p.
Experimental: (§1) All tests were performed on male Carworth Farms No. 1 mice by the Antiepileptic Drug Development Program administered by the Section of Epilepsy, National Institutes of Health, Bethesda, MD 20014, according to previously described procedures [DHEW Publication No. (NIH) 76-1093 (1976), Bethesda, MD]. These involved the inhibition of seizures induced by maximal electroshock (MES) and by three subcutaneously administered chemicals: 85 mg/kg pentylenetetrazol (Metrazol) (scMet), 2.7 mg/kg bicuculline (scBic) and 3.2 mg/kg picrotoxin (scPic). Test compounds were solubilized in polyethylene glycol 400 and administered intraperitoneally in a volume of 0.01 ml/g. The time of peak anticonvulsant activity were determined for II (200 mg/kg), III (300 mg/kg) and IV (300 mg/kg) against MES and for I (200 mg/kg) against scMet with dosing of I-III at 0.5, […]. using four mice per dose. Neurotoxicity was evaluated by placing an animal on a 1 in. diameter knurled plastic rod and rotating at 6 rpm. Failure of the animal to remain on the rod for 1 min. signified neurological toxicity. This testing was performed using groups of eight mice on a time course basis by dosing with I (900 mg/kg), II (400 mg/kg) and III (360 mg/kg) after 0.5, 1, 2 and 4 hrs. and with IV (580 mg/kg) after an additional 6 and 24 hrs. The neurotoxicity was also similarly quantified, with observations taken 30 mins. after dosing, as follows (compound/mg/kg): I, 400, 500, 600, 700, 800, 900; II, 350, 400, 430, 470; III, 230, 260, 300, 360, 420; IV, 150, 300, 400, 500, 580, 600. Quantification of anticonvulsant activity was similarly determined as follows (compound, test, mg/kg), I, MES, 100, 140, 150, 160, 170, 190, 250; I, scMet, 140, 200, 240, 300, 400, 500; I, scBic, 350, 400, 450, 475, 500; I, scPic, 150, 250, 330, 440, 500; II, MES, 130, 170, 200, 230; II, scMet, 150, 180, 230, 300; III, MES, 220, 240, 280, 290, 300; III, scMet, 300, 400, 500, 600; IV, MES, 150, 220, 300, 400, 500, 600; IV, scMet, 300, 410, 470, 600, 760. […] I=dimethyl ester of 3-aminophenylphosphonic acid; II=diethyl ester of 3-aminophenylphosphonic acid; III=diisopropyl ester of 3-aminophenylphosphonic acid; and IV=diethyl-2-acetamidophenylphosphate.

[7] = Rotorod neurotoxicity test (failure to remain on rotating rod, 6 rpm, for 1 min); assay type: in vivo, male Carworth Farms No. 1 mice; details: mouse, in vivo, ip; mice, i.p., 30 mins. after dosing
Experimental: as §1

[8] = tested on: seizures induced by maximal electroshock (MES); test: inhibition of seizures induced by maximal electroshock (MES) in mice, intraperitoneal; assay type: in vivo, male Carworth Farms No. 1 mice; details: for ED50, MES / P.I. (protective index, TD50/ED50), MES: i.p.; for factor of greater protection against MES than VPA: relative to VPA (valproic acid)
Experimental: as §1

neurotoxicity (Rotorod) [9] = details: data taken from Kupferberg, 1980; cited from earlier work
[10] = tested on: seizures induced by subcutaneous bicuculline (scBic); test: inhibition of seizures induced by subcutaneous bicuculline (scBic), 2.7 mg/kg; assay type: in vivo, male Carworth Farms No. 1 mice
Experimental: as §1, with “600.” for “600. Quantification of anticonvulsant activity was similarly determined as follows (compound, test, mg/kg), I, MES, 100, 140, 150, 160, 170, 190, 250; I, scMet, 140, 200, 240, 300, 400, 500; I, scBic, 350, 400, 450, 475, 500; I, scPic, 150, 250, 330, 440, 500; II, MES, 130, 170, 200, 230; II, scMet, 150, 180, 230, 300; III, MES, 220, 240, 280, 290, 300; III, scMet, 300, 400, 500, 600; IV, MES, 150, 220, 300, 400, 500, 600; IV, scMet, 300, 410, 470, 600, 760.”

neurotoxicity (Rotorod) [11] = test: Rotorod neurotoxicity test (failure to remain on rotating rod, 6 rpm, for 1 min); assay type: in vivo, male Carworth Farms No. 1 mice
Experimental: as §1

[12] = tested on: seizures induced by subcutaneous picrotoxin (scPic); assay type: in vivo, male Carworth Farms No. 1 mice
Experimental: as §1, with “600.” for “600. Quantification of anticonvulsant activity was similarly determined as follows (compound, test, mg/kg), I, MES, 100, 140, 150, 160, 170, 190, 250; I, scMet, 140, 200, 240, 300, 400, 500; I, scBic, 350, 400, 450, 475, 500; I, scPic, 150, 250, 330, 440, 500; II, MES, 130, 170, 200, 230; II, scMet, 150, 180, 230, 300; III, MES, 220, 240, 280, 290, 300; III, scMet, 300, 400, 500, 600; IV, MES, 150, 220, 300, 400, 500, 600; IV, scMet, 300, 410, 470, 600, 760.”

[13] = tested on: convulsions induced in mice by MES and scMet; test: time course of protection against convulsions induced by MES and scMet (FIG. 1); assay type: in vivo; details: i.p., 300 mg/kg
Experimental: FIG. 1 is a graphical representation showing the time course of percent protection by intraperitoneally administered I-IV against seizures induced by maximal electroshock (MES) or subcutaneous pentylenetetrazol (Metrazol) (scMet). Key: ( ) I (dimethyl ester of 3-aminophenylphosphonic acid) 400 mg/kg, scMet: ( ) II (diethyl ester of 3-aminophenylphosphonic acid) 200 mg/kg, MES; ( ) III (diisopropyl ester of 3-aminophenylphosphonic acid) 300 mg/kg, MES: ( ) IV (diethyl-2-acetamidophenylphosphate) 300 mg/kg, MES.
All tests were performed on male Carworth Farms No. 1 mice by the Antiepileptic Drug Development Program administered by the Section of Epilepsy, National Institutes of Health, Bethesda, MD 20014, according to previously described procedures [DHEW Publication No. (NIH) 76-1093 (1976), Bethesda, MD]. […] The time of peak anticonvulsant activity were determined for II (200 mg/kg), III (300 mg/kg) and IV (300 mg/kg) against MES and for I (200 mg/kg) against scMet with dosing of I-III at 0.5, […]. using four mice per dose. Neurotoxicity was evaluated by placing an animal on a 1 in. diameter knurled plastic rod and rotating at 6 rpm. […]

[14] = mice, pentylenetetrazol 85 mg/kg s.c.

Compound	ED50, scMet [1]	ED50, scBic [2]	time to peak effect [3]	ED50, scPic [5]	P.I. (protective index, TD50/ED50), scMet ([6]; mice)	TD50 at 0.5 h [7]	ED50, MES ([8]; mice)	P.I. (protective index, TD50/ED50), MES ([8]; mice)	other results
CCCC(CCC)C(=O)O [VPA, Valproic Acid]	148.59 mg/kg	359.95 mg/kg	16 min	387.21 mg/kg	–	–	–	–	ED50, MES [4]: 217.66 mg/kg
CCC1(C)CC(=O)NC1=O (stereo not drawn) [Ethosuximide]	–	459.01 mg/kg	30 min	242.69 mg/kg	–	–	–	–	–
CCOP(=O)(OCC)c1cccc(N)c1 [II, diethyl ester of 3-aminophenylphosphonic acid]	–	–	–	–	1.86	389 mg/kg	175.43 mg/kg	2.22	ED50, scMet [6, 14]: 208.73 mg/kg; factor of greater protection against MES than VPA [8]: 1.4 times
CN1C(=O)OC(C)(C)C1=O [Trimethadione]	300.45 mg/kg	532.12 mg/kg	60 min	408.09 mg/kg	–	–	–	–	TD50, Rotorod neurotoxicity test (neurotoxicity (Rotorod) [9]): 819.07 mg/kg; P.I. (protective index, TD50/ED50), scMet [1]: 2.73; P.I. (protective index, TD50/ED50), scBic [2]: 1.54; P.I. (protective index, TD50/ED50), scPic [5]: 2.01
CC(C)OP(=O)(OC(C)C)c1cccc(N)c1 [III, diisopropyl ester of 3-aminophenylphosphonic acid]	–	–	–	–	–	311 mg/kg	266.49 mg/kg	1.17	–
CCC1(c2ccccc2)C(=O)NC(=O)NC1=O [Phenobarbital]	13.17 mg/kg	37.72 mg/kg	60 min	27.51 mg/kg	–	–	–	–	–
COP(=O)(OC)c1cccc(N)c1 [I, dimethyl ester of 3-aminophenylphosphonic acid]	–	–	–	–	2.83	680 mg/kg	166.46 mg/kg	4.08	ED50, scMet [6, 14]: 239.93 mg/kg; result in scMet test compared with VPA ([6]; relative to VPA): nearly identical results as VPA; activity profile in all three testing procedures compared with trimethadione ([6]; scMet, scBic, scPic): very similar to trimethadione; P.I. (protective index, TD50/ED50), scBic ([10]; mice, i.p., TD50/ED50): 1.56; ED50, scBic ([10]; mice, i.p., bicuculline 2.7 mg/kg s.c.): 435.94 mg/kg; effectiveness against scBic relative to VPA ([10]; relative to VPA): 1.3 times; times better than valproic acid against chemically induced seizures ([10]; second of two chemically induced seizures (scBic)): 1.3 times; neurotoxicity dose level (neurotoxicity (Rotorod) [11]; compared with valproic acid): superior neurotoxicity dose level; times better than valproic acid against chemically induced seizures ([12]; first of two chemically induced seizures (scPic)): 1.8 times; P.I. (protective index, TD50/ED50), scPic ([12]; mice, i.p., TD50/ED50): 2.02; ED50, scPic ([12]; mouse, in vivo, ip): 336.20 mg/kg; effectiveness against scPic relative to VPA ([12]; relative to VPA): 1.8 times; factor of greater protection against MES than VPA [8]: 2.6 times; factor of greater protection against MES than VPA ([8]; listed as dimethyl ester of 3-aminophenylphosphonic acid): about 2.5 times
CCOP(=O)(OCC)Oc1ccccc1NC(C)=O [IV, diethyl-2-acetamidophenylphosphate]	–	–	–	–	1.03	458 mg/kg	–	1.31	ED50 ([6]; Mus musculus, ip, mice, pentylenetetrazol 85 mg/kg s.c.): 444 mg/kg; latent protective effect in time course [13]: slight degree of latent protective effect; time course of neurotoxicity (neurotoxicity (Rotorod) [11]; mice, i.p., IV 580 mg/kg, up to 24 hours): high and prolonged toxicity beginning after two hours and persisting at this level from 6 to 24 hours; ED50 ([8]; Mus musculus, ip, mice): 348 mg/kg
